Experimental data taken from ChEMBL document CHEMBL1201862, “PubChem BioAssay data set” (2004).
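Grown in 96-well plates, cells were treated for 48 hours with each compound at five concentrations. Insufficient inhibition: endpoint recorded as highest concentration tested. GI50 marks 50% less growth.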 The source made the active and inactive calls. Cut-off read from the data, not from the text of the source: active = GI50 up to about 1.1 µM and inactive = higher.

What was measured:
Test in all cases: NCI anticancer screen, dose series, 48 h
786-0 = system: 786-0
A549 = system: A549
ACHN = system: ACHN
CAKI-1 = system: CAKI-1
CCRF-CEM = system: CCRF-CEM
COLO 205 = system: COLO 205
DU-145 = system: DU-145
EKVX = system: EKVX
HCT-116 = system: HCT-116
HCT-15 = system: HCT-15
HL-60 = system: HL-60
HOP-62 = system: HOP-62
HOP-92 = system: HOP-92
HT-29 = system: HT-29
Hs-578T = system: Hs-578T
IGROV-1 = system: IGROV-1
K562 = system: K562
KM12 = system: KM12
LOX IMVI = system: LOX IMVI
M14 = system: M14
MCF7 = system: MCF7
MDA-MB-231 = system: MDA-MB-231
MDA-MB-435 = system: MDA-MB-435
MDA-N = system: MDA-N
MOLT-4 = system: MOLT-4
Malme-3M = system: Malme-3M
NCI-H226 = system: NCI-H226
NCI-H23 = system: NCI-H23
NCI-H460 = system: NCI-H460
NCI-H522 = system: NCI-H522
NCI/ADR-RES = system: NCI/ADR-RES
OVCAR-3 = system: OVCAR-3
OVCAR-4 = system: OVCAR-4
OVCAR-5 = system: OVCAR-5
OVCAR-8 = system: OVCAR-8
PC-3 = system: PC-3
RPMI-8226 = system: RPMI-8226
RXF 393 = system: RXF 393
SF-268 = system: SF-268
SF-295 = system: SF-295
SF-539 = system: SF-539
SK-MEL-28 = system: SK-MEL-28
SK-MEL-2 = system: SK-MEL-2
SK-MEL-5 = system: SK-MEL-5
SN12C = system: SN12C
SNB-19 = system: SNB-19
SNB-75 = system: SNB-75
SR = system: SR
SW-620 = system: SW-620
T47D = system: T47D
TK-10 = system: TK-10
U-251 = system: U-251
UACC-257 = system: UACC-257
UACC-62 = system: UACC-62
UO-31 = system: UO-31
HCC 2998 = system: HCC 2998
SK-OV-3 = system: SK-OV-3

COc1cccc(C(=O)Oc2ccc(OS(=O)(=O)c3ccc(C)cc3)cc2)c1C#N
GI50 (786-0): 86.9 µM (inactive) | GI50 (A549): 23.6 µM (inactive) | GI50 (ACHN): 94 µM (inactive) | GI50 (CAKI-1): > 100 µM (inactive) | GI50 (CCRF-CEM): 47.5 µM (inactive) | GI50 (COLO 205): 71.4 µM (inactive) | GI50 (DU-145): 93.1 µM (inactive) | GI50 (EKVX): 59.8 µM (inactive) | GI50 (HCT-116): 41.7 µM (inactive) | GI50 (HCT-15): 74 µM | GI50 (HL-60): 34.1 µM (inactive) | GI50 (HOP-62): > 100 µM (inactive) | GI50 (HOP-92): 41.6 µM (inactive) | GI50 (HT-29): 78.5 µM (inactive) | GI50 (Hs-578T): 86.7 µM (inactive) | GI50 (IGROV-1): 29 µM (inactive) | GI50 (K562): 43 µM (inactive) | GI50 (KM12): 61.1 µM (inactive) | GI50 (LOX IMVI): > 100 µM (inactive) | GI50 (M14): 47.9 µM (inactive) | GI50 (MCF7): 49.7 µM (inactive) | GI50 (MDA-MB-231): 65.6 µM (inactive) | GI50 (MDA-MB-435): 55.5 µM (inactive) | GI50 (MDA-N): 68.2 µM (inactive) | GI50 (MOLT-4): 35.7 µM (inactive) | GI50 (Malme-3M): 32.4 µM (inactive) | GI50 (NCI-H226): > 100 µM (inactive) | GI50 (NCI-H23): 50.4 µM (inactive) | GI50 (NCI-H460): 49.5 µM (inactive) | GI50 (NCI-H522): 86.7 µM (inactive) | GI50 (NCI/ADR-RES): 33 µM (inactive) | GI50 (OVCAR-3): 29.9 µM (inactive) | GI50 (OVCAR-4): 52.5 µM (inactive) | GI50 (OVCAR-5): > 100 µM (inactive) | GI50 (OVCAR-8): 66.8 µM (inactive) | GI50 (PC-3): 43.3 µM (inactive) | GI50 (RPMI-8226): 36.8 µM (inactive) | GI50 (RXF 393): 37.6 µM (inactive) | GI50 (SF-268): > 100 µM (inactive) | GI50 (SF-295): 55.6 µM (inactive) | GI50 (SF-539): > 100 µM (inactive) | GI50 (SK-MEL-28): > 100 µM (inactive) | GI50 (SK-MEL-2): 66.5 µM (inactive) | GI50 (SK-MEL-5): 11.4 µM (inactive) | GI50 (SN12C): > 100 µM (inactive) | GI50 (SNB-19): > 100 µM (inactive) | GI50 (SNB-75): > 100 µM (inactive) | GI50 (SR): 47.9 µM (inactive) | GI50 (SW-620): > 100 µM (inactive) | GI50 (T47D): 20.1 µM (inactive) | GI50 (TK-10): 78.7 µM (inactive) | GI50 (U-251): > 100 µM (inactive) | GI50 (UACC-257): 28.6 µM (inactive) | GI50 (UACC-62): 87.3 µM (inactive) | GI50 (UO-31): 28.3 µM (inactive)

CC1OC(c2ccc3c(OCc4ccccc4)cccc3c2O)CC(OCc2ccccc2)[C@H]1OCc1ccccc1 (stereo partly drawn)
GI50 (786-0): > 10 µM (inactive) | GI50 (A549): > 10 µM (inactive) | GI50 (CAKI-1): > 10 µM (inactive) | GI50 (CCRF-CEM): > 10 µM (inactive) | GI50 (COLO 205): > 10 µM (inactive) | GI50 (DU-145): > 10 µM (inactive) | GI50 (EKVX): > 10 µM (inactive) | GI50 (HCC 2998): > 10 µM (inactive) | GI50 (HCT-15): > 10 µM | GI50 (HL-60): > 10 µM (inactive) | GI50 (HOP-62): > 10 µM (inactive) | GI50 (HT-29): > 10 µM (inactive) | GI50 (IGROV-1): > 10 µM (inactive) | GI50 (K562): > 10 µM (inactive) | GI50 (KM12): > 10 µM (inactive) | GI50 (M14): > 10 µM (inactive) | GI50 (MCF7): > 10 µM (inactive) | GI50 (MDA-MB-231): > 10 µM (inactive) | GI50 (MDA-N): > 10 µM (inactive) | GI50 (MOLT-4): > 10 µM (inactive) | GI50 (Malme-3M): > 10 µM (inactive) | GI50 (NCI-H23): > 10 µM (inactive) | GI50 (OVCAR-8): > 10 µM (inactive) | GI50 (PC-3): > 10 µM (inactive) | GI50 (RPMI-8226): > 10 µM (inactive) | GI50 (RXF 393): > 10 µM (inactive) | GI50 (SF-268): > 10 µM (inactive) | GI50 (SF-295): > 10 µM (inactive) | GI50 (SK-MEL-28): > 10 µM (inactive) | GI50 (SK-MEL-5): > 10 µM (inactive) | GI50 (SK-OV-3): > 10 µM (inactive) | GI50 (SN12C): > 10 µM (inactive) | GI50 (SNB-75): > 10 µM (inactive) | GI50 (SW-620): > 10 µM (inactive) | GI50 (T47D): > 10 µM (inactive) | GI50 (TK-10): > 10 µM (inactive) | GI50 (UACC-257): > 10 µM (inactive) | GI50 (UACC-62): > 10 µM (inactive)
